Source: patent US6642271B2, “Potentiating compounds” (Ardenia Investments, Ltd., priority 2001, dated 2003)
Several values for one entry are separate records, joined by “and”; a condition that tells them apart may be missing. Identical values can stand only once. Each block holds one molecule with its values, some of them ahead of it.

Legend:
[1] = system: human breast adenocarcinoma MDA-MB-231 cell line; assay: Cytotoxicity: cell growth inhibition in cultures, viable cells counted by trypan blue exclusion; format: cell-based
Description: The cell line was propagated by cultivation in Nunclon 25 cm^2 flasks (Nunc A/S, Denmark) in Minimum Essential Medium Eagle (MEM), containing antibiotics and supplemented with 10% (v/v) fetal bovine serum (FBS) (Sigma, St. Louis, Mo., USA). The cultures were maintained in growth medium at 37° C. in a humidified atmosphere, 95% air and 5% CO2.
A suspension of tumour cells (60×10^3 cells/mL) was prepared in MEM with 5% FBS and antibiotics. Cell suspension (200 μL) was seeded in wells of Nunclon 96-microwell plates (Nunc A/S, Denmark) at a density of 12×10^3 cell/well. The solutions of the drugs to be tested were added to the cultures on day 0 or day 1 in volumes of 2 μL. In all cases the cells were incubated for 3 days.
At the end of the incubation period, adherent cells were detached by trypsinization and the number of viable cells was counted using trypan blue dye exclusion test and a hemocytometer.
All experiments were performed at least twice and the cells counts were done in triplicate for each drug concentration. Each control and test series consisted of 6-8 cultures. The results are expressed as mean cell number ±SD and the differences between control and test series were evaluated by means of Student's t-test. The cytotoxicity of each tested drug was evaluated by the extent of cell growth inhibition. The Cell growth inhibition was evaluated as follows:
Cell growth inhibition, %=- - - ×100

[2] = Solubility of compounds and formulations; format: physicochemical
Description: The obtained solution can be stored for at least three months at low temperatures, without noticeable change in the properties of compound (I-VI). Moreover, the formulation retains its cytotoxic effects during prolonged storage. Before use, the solution is evaporated in vacuo to yield a waxy solid which is dissolved in saline or other commonly used vehicle for intravenous infusion to a patient. […] An ethanol solution is prepared of one of N-(all-trans-Retinoyl)-L-cysteic acid (I), N-(13-cis-Retinoyl)-L-cysteic acid (11), N-(all-trans-Retinoyl)-L-homocysteic acid (III), N-(13-cis-Retinoyl)-L-homocysteic acid (IV), N-(all-trans-Retinoyl)-L-cysteinesulfinic acid (V), or N-(13-cis-Retinoyl)-L-cysteinesulfinic acid (VI). The obtained solution is evaporated in vacuo to give waxy solid, whereupon Taxol® is added, dissolving the waxy solid. […]

solubility in the commercially available Taxol® preparation [2]: excellent solubility
Structure (SMILES): CC1=C(/C=C/C(C)=C/C=C/C(C)=C/C(=O)N[C@@H](CCS(=O)(=O)O)C(=O)O)C(C)(C)CCC1 [Compound III, N-(all-trans-Retinoyl)-L-homocysteic acid]
inhibition at 0.04 µM ([1]; Homo sapiens, MDA-MB-231, sodium salt in saline, final 4 × 10^−8 mol/L, day 1, three days): 32.8%
inhibition at 1 µM ([1]; Homo sapiens, MDA-MB-231, sodium salt in saline, final 10^−6 mol/L (top of range 10^−11 M to 10^−6 M), day 1, three days): 36.1%
inhibition at 0.1 µM ([1]; Homo sapiens, MDA-MB-231, sodium salt in saline, final 10^−7 mol/L, day 1, three days): 34.4%
inhibition at 0.01 µM ([1]; Homo sapiens, MDA-MB-231, sodium salt in saline, final 10^−8 mol/L, day 1, three days): 25.8%
inhibition at 0.001 µM ([1]; Homo sapiens, MDA-MB-231, sodium salt in saline, final 10^−9 mol/L, day 1, three days): 19.7%
inhibition at 0.0001 µM ([1]; Homo sapiens, MDA-MB-231, sodium salt in saline, final 10^−10 mol/L, day 1, three days): 15.5%
inhibition at 10 pM ([1]; Homo sapiens, MDA-MB-231, sodium salt of the compound dissolved in saline (1 mg/ml), final concentration 10^−11 mol/L, day 1, three days): 16.9%
Cell growth inhibition % Formulation ([1]; compound/paclitaxel formulations in saline): close to 60%
Cell growth inhibition % OF W/SAB ([1]; dried compound/paclitaxel mixed-micellar system (OF), freeze-dried as water solution, reconstituted with 0.05 M sodium acetate buffer): close to 62%
Cell growth inhibition % OF SAB/W ([1]; dried compound/paclitaxel mixed-micellar system (OF), freeze-dried in 0.05 M sodium acetate buffer, reconstituted with water): close to 63%
number of living cells ([1]; sodium salt in saline, final 4 × 10^−8 mol/L, day 1, three days): 36.5 ± 2.08 × 10^3
cell growth inhibition ([1]; sodium salt in saline, final 10^−6 mol/L (top of range 10^−11 M to 10^−6 M), day 1, three days): ~35%
number of living cells ([1]; sodium salt in saline, final 10^−6 mol/L, day 1, three days): 34.7 ± 1.52 × 10^3
number of living cells ([1]; sodium salt in saline, final 10^−7 mol/L, day 1, three days): 35.6 ± 1.68 × 10^3
number of living cells ([1]; sodium salt in saline, final 10^−8 mol/L, day 1, three days): 40.3 ± 3.36 × 10^3
number of living cells ([1]; sodium salt in saline, final 10^−9 mol/L, day 1, three days): 43.6 ± 2.57 × 10^3
number of living cells ([1]; sodium salt in saline, final 10^−10 mol/L, day 1, three days): 45.9 ± 2.84 × 10^3
number of living cells ([1]; sodium salt of the compound dissolved in saline (1 mg/ml), final concentration 10^−11 mol/L, day 1, three days): 45.1 ± 3.51 × 10^3
solubility in solvents ([2]; sodium salts): also dissolved in methanol and some methanol containing mixtures

Structure (SMILES): CC(=O)O[C@H]1C(=O)[C@@]2(C)[C@H]([C@H](OC(=O)c3ccccc3)[C@]3(O)C[C@H](OC(=O)[C@H](O)[C@@H](NC(=O)c4ccccc4)c4ccccc4)C(C)=C1C3(C)C)[C@]1(OC(C)=O)CO[C@@H]1C[C@@H]2O [Paclitaxel, reference compound]
number of living cells ([1]; 8 × 10^−9 mol/L of paclitaxel (formulation: plus 4 × 10^−8 mol/L of compound, molar ratio 1:5), added day 0, three days): 15.5 ± 1.63 × 10^3 and 26.3 ± 1.96 × 10^3
cell growth inhibition ([1]; at concentrations close to the IC50 concentration): ~46%
cell growth inhibition ([1]; drug alone, 10 nM paclitaxel, added day 1, three days of cultivation, positive control of molar-ratio experiments): 46.1% and 44.3%
